Data set [1] has as its target T1, sPLA2, human recombinant type V (Homo sapiens, UniProt P39877).
T1 construct: purchased Cayman Chemical 10009563
T1 sequence (P39877 21-138): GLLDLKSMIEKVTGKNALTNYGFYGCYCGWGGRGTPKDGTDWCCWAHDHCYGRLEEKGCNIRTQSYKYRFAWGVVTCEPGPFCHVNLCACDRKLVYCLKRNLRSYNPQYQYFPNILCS
Also noted: method as in PMID 2303420. The settings on record: cited from earlier work.

Data set [2] addresses T1, sPLA2, human recombinant type V. In words: EnzChek phospholipase A2 fluorogenic assay (selectivity) with sPLA2. The following applies: 10 μM. It counts as biochemical. The method, then:
To further explore their selectivity towards cPLA2, 10 μM of 2g and 2i were evaluated for their inhibition against recombinant sPLA2 using the fluorogenic PLA2 assay (Fig. 3C).
The assay was conducted as described above. Instead of adding cPLA2, it was replaced by sPLA2. 48 μL of 1X phospholipase A2 reaction buffer was added into each well of a 96-wells plate. This was followed by addition of 1 μL of sPLA2, human recombinant type V (10009563, Cayman Chemical) and 1 μL of 1 mM of the respective compound or thioetheramide-PC (62750, Cayman Chemical) dissolved in DMSO. The final concentration of the test compound achieved is 10 μM. The reaction was initiated by adding 50 μL of the substrate solution and incubating at room temperature for 1 h. Fluorescence was measured using a Varioskan plate reader by exciting at 485 nm, while fluorescence emission was detected at 515 nm. Positive control was performed when 1 μL of test compound was replaced by vehicle DMSO. % activity was expressed as the mean value of duplicate wells from four experiments. % activity was calculated by the following formula:2 %activity=fluorescenceoftestedwell−background/fluorescenceofpostivecontrol−background

The target in data set [3] is T2, recombinant cPLA2 (Homo sapiens, UniProt P47712).
T2 construct: purchased US Biological P4074-03R
T2 sequence (P47712 1-749): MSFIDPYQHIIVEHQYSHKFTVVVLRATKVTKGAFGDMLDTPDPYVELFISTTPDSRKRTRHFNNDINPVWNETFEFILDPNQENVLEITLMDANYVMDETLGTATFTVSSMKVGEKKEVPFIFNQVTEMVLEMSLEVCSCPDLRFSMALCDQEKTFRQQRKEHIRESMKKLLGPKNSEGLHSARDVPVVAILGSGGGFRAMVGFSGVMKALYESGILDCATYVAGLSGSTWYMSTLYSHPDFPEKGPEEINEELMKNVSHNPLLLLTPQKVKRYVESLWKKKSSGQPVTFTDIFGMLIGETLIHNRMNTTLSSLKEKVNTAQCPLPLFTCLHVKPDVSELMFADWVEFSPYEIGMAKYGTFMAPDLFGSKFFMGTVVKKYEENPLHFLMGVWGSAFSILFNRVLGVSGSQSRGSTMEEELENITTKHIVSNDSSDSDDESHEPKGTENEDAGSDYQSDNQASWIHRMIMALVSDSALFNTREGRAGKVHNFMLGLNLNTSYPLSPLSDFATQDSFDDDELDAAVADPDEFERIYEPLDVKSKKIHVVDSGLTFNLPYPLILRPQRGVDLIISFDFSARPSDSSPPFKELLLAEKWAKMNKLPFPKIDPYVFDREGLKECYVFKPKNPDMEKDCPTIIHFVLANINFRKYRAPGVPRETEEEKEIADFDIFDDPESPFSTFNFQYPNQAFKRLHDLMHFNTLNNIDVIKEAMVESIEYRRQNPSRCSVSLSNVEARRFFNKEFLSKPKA
In words: EnzChek phospholipase A2 fluorogenic assay (IC50). It is filed as biochemical. The method, then: The assay was conducted as described above. Instead of adding a fixed concentration of the test compound, various concentrations of compound were reconstituted in DMSO. 48 μL of 1X phospholipase A2 reaction buffer were added into each well of a 96-wells plate. This was followed by addition of 1 μL of recombinant cPLA2 (P4074-03R, US Biological) and 1 μL of the respective concentration of the test compound dissolved in DMSO. The reaction was initiated by adding 50 μL of the substrate solution and incubating at room temperature for 1 h. Fluorescence was measured using a Varioskan plate reader by exciting at 485 nm, while fluorescence emission was detected at 515 nm. Positive control was performed when 1 μL of test compound was replaced by vehicle DMSO. IC50 was expressed as the mean value of duplicate wells from three experiments.

The subject of data set [4] is BV-2 cells. In words: MTS cell proliferation assay on BV-2 cells. It counts as cell-based, murine. The settings on record: 10 μM, 48 h and 72 h, vs vehicle control. As to the method:
(§1) To explore whether the inhibitors are cytotoxic, MTS assay were conducted on BV-2 cells, a murine microglial cell line derived from post-natal mouse cerebella, and HEK293T cells that are derived from human embryonic kidney. Both cell types were treated with 10 μM of 1a, 2g and 2i for 48 h and 72 h (Fig. 3A,B). Dimethyl sulfoxide (DMSO) vehicle control was also included as the compounds were dissolved in DMSO.
(§2) Cells were plated on a 96-wells plate and grown for 24 h to a density of 8000 cells per well for both HEK293T and BV-2 cells. Cells were cultured at 37 °C under a 5% CO2 environment in 100 μL of culture medium. Thereafter, the compound of interest dissolved in culture medium at a concentration of 10 μM was replaced into each well. DMSO was added as vehicle in the control group. 3 biological replicates were performed. The plates were then incubated at 37 °C with 5% CO2 for 48 h and 72 h. At each individual time point, 20 μL of CellTiter 96® AQueous One Solution (MTS reagent) was added into each well and re-incubated at 37 °C with 5% CO2 without light for 3 h. Colorimetric readings were taken using a Varioskan plate reader at 490 nm and analyzed. Three independent biological repeats with four technical replicates were performed.
(In general: Tetrazolium dyes change colour on reduction, which living cells bring about.)

Data set [5] addresses T2, recombinant cPLA2. In words: EnzChek phospholipase A2 fluorogenic assay (% activity) at 10 μM. The settings on record: 10 μM compound; for remaining activity at 10 µM: 1 h, room temperature. It counts as biochemical. The method, then:
The compounds were evaluated with a fluorogenic PLA2 assay kit (EnzChek® Phospholipase A2 Assay Kit, Catalog No: E10217) at a standard 10 μM concentration. Potential inhibitors were determined by their ability to lower cPLA2 activity to a greater extent than 1a.
The assay was conducted according to the manufacturer’s instruction (E10217, Molecular Probes) with slight modification. Briefly, substrate solution was separately prepared by mixing 5 μL of DOPG, 5 μL of DOPC and 5 μL of substrate respectively in 1.5 mL of 1X phospholipase A2 reaction buffer. The mixture was vortexed vigorously for 3 min before allowing to stand at room temperature for 1 h. 48 μL of 1X phospholipase A2 reaction buffer were added into each well of a 96-wells plate. This was followed by addition of 1 μL of recombinant cPLA2 (P4074-03R, US Biological) and 1 μL of 1 mM of the respective compound dissolved in DMSO. The final concentration of the test compound achieved is 10 μM. The reaction was initiated by adding 50 μL of the substrate solution and incubating at room temperature for 1 h. Fluorescence was measured using a Varioskan plate reader (Thermo Scientific, MA, USA) by exciting at 485 nm, while fluorescence emission was detected at 515 nm. Positive control was performed when 1 μL of test compound was replaced by vehicle DMSO. % activity was expressed as the mean value of duplicate wells from three experiments. % activity was calculated by the following formula1 %activity=fluorescenceoftestedwell−background/fluorescenceofpostivecontrol−background

The subject of data set [6] is HEK293T cells. Description: MTS cell proliferation assay on HEK293T cells. It is filed as cell-based, human. The settings on record: 10 μM, 48 h and 72 h, vs vehicle control. As to the method:
as §1, §2

Usually IC50 stands for the concentration that inhibits the measured activity by half. On to `CCCCCCCCCCCCCCCCSC[C@H](COP(=O)(O)OCC[N+](C)(C)C)NC(=O)CCCCCCCCCCCCCCC` [Thioetheramide-PC, reference compound], for which the IC50 in data set [1] was 2 µM. The “reduction of sPLA2 activity” value in data set [2] is reported as 62%.
One may read the inhibition as the share of the control response that was lost under treatment. One may read the remaining activity as the signal under treatment as a percentage of the control signal. For `CCCCC/C=C\C/C=C\C/C=C\C/C=C\CCCC(=O)C(F)(F)F` [1a, arachidonyl trifluoromethyl ketone, reference compound], the IC50 in data set [3] amounted to 16.5 ± 3 µM. For the same compound, the “cytotoxicity (MTS) on BV-2 cells” value in data set [4] is “no statistical differences in cell survival”. In addition, in data set [5], the inhibition at 10 µM stood at 60% and the remaining activity at 10 µM amounted to 40 ± 0.9%. Moreover, the “cytotoxicity (MTS) on HEK293T cells” value in data set [6] is “no statistical differences in cell survival”.
As to `CCCCC/C=C\C/C=C\C/C=C\C/C=C\CCCCC(=O)NCCCCC(=O)O` [2g], the IC50 in data set [3] turned out to be 5.3 ± 0.3 µM. In addition, the “fold stronger cPLA2 inhibition than 1a (from IC50)” value in data set [3] (relative to 1a) came out at 3 fold. The “cytotoxicity (MTS) on BV-2 cells” value in data set [4] is recorded as “no significant toxic effects”. In data set [5], the inhibition at 10 µM is 84.5% and the remaining activity at 10 µM turned out to be 15.5 ± 0.3%. Also, in data set [2] (relative to DMSO control), the sPLA2 activity worked out at 184%. Moreover, the “cytotoxicity (MTS) on HEK293T cells” value in data set [6] is “no significant toxic effects”.

(Values after paper PMC5651845, “A New Generation of Arachidonic Acid Analogues as Potential Neurological Agent Targeting Cytosolic Phospholipase A2” (Scientific Reports, 2017).)
